In ChEMBL document CHEMBL1135773, “Purine and pyrimidine (P2) receptors as drug targets” (J Med Chem, 2002):

Legend:
[1] = target: P2Y purinoceptor 1 (Meleagris gallopavo, UniProt P49652); assay: Evaluated for agonist activity against phospholipase C coupled P2Y purinoceptor 1 (P2Y1) of turkey erythrocytes; format: functional
[2] = target: P2Y purinoceptor 12 (Rattus norvegicus, UniProt Q9EPX4); assay: Antagonist activity against phospholipase C coupled rat P2Y purinoceptor 12 (P2Y12); format: functional
[3] = target: T1, P2X purinoceptor 1 (Homo sapiens, UniProt P51575); assay: Antagonist activity against recombinant human P2X purinoceptor 1 (P2X1 ); format: functional
T1 sequence (P51575 whole entry): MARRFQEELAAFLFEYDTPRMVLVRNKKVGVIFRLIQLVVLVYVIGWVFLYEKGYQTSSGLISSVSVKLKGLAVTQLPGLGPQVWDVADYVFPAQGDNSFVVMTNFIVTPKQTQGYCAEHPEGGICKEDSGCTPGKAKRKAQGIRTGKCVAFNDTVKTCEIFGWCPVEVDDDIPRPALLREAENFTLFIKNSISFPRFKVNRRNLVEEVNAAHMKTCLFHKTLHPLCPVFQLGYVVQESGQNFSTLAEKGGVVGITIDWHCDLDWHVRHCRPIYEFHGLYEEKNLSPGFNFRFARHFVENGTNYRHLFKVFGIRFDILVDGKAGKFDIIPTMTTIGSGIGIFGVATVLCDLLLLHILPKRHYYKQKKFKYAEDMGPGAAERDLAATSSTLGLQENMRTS

[4] = target: T2, P2Y purinoceptor 11 (Homo sapiens, UniProt Q96G91); assay: Agonist activity against phospholipase C coupled human P2Y purinoceptor 11 (P2Y11); format: functional
T2 sequence (Q96G91 whole entry): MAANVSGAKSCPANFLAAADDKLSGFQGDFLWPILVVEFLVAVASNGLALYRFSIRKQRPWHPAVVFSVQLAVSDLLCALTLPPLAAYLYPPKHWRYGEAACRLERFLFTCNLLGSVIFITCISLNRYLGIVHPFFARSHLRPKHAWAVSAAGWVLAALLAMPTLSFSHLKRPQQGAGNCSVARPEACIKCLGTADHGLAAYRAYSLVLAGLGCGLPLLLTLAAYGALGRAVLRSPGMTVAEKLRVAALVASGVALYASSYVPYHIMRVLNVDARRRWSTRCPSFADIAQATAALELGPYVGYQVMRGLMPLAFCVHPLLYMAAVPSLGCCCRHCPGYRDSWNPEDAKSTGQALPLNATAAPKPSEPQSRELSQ

[5] = target: T3, P2X purinoceptor 4 (Rattus norvegicus, UniProt P51577); assay: Antagonist activity against recombinant rat P2X purinoceptor 4 (P2X4) at 3 uM, expressed in Xenopus oocytes; format: functional, cell-based, Oocyte
T3 sequence (P51577 whole entry): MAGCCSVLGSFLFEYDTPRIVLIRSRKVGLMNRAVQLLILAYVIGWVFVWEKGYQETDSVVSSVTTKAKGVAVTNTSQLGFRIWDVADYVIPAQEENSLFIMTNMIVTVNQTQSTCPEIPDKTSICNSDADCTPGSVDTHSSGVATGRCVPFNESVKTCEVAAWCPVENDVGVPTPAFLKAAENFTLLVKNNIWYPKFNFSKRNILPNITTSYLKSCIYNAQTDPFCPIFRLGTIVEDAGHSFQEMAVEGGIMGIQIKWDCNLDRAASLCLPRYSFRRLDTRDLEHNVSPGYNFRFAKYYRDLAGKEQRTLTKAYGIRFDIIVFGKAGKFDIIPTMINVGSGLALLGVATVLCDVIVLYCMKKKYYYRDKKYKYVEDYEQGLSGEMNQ

[6] = target: T4, P2X purinoceptor 1 (Rattus norvegicus, UniProt P47824); assay: The compound was evaluated for antagonist activity against recombinant rat P2X purinoceptor 1 (P2X1) at 1 uM, expressed in Xenopus oocytes; format: functional, cell-based, Oocyte
T4 sequence (P47824 whole entry): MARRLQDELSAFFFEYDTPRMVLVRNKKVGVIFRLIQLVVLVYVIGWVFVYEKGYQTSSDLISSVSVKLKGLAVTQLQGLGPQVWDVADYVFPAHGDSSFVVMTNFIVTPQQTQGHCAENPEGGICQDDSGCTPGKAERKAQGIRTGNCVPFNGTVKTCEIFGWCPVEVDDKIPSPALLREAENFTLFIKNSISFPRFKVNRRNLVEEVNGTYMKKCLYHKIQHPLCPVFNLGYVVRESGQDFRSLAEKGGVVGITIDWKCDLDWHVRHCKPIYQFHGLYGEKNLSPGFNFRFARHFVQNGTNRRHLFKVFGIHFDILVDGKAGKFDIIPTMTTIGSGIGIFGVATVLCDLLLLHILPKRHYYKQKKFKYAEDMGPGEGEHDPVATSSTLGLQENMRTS

[7] = target: P2Y purinoceptor 2 (Homo sapiens, UniProt P41231); assay: Evaluated for agonist activity against phospholipase C coupled recombinant human P2Y purinoceptor 2 (P2Y2); format: functional
[8] = target: P2Y purinoceptor 1 (Homo sapiens, UniProt P47900); assay: Evaluated for agonist activity against phospholipase C coupled P2Y purinoceptor 1 (P2Y1) of human erythrocytes; format: functional
[9] = target: P2Y purinoceptor 6 (Homo sapiens, UniProt Q15077); assay: The compound was evaluated for agonist activity against phospholipase C coupled recombinant human P2Y purinoceptor 6 (P2Y6); format: functional
[10] = target: T4, P2X purinoceptor 1; assay: The compound was evaluated for antagonist activity against recombinant rat P2X purinoceptor 1 (P2X1); format: functional
[11] = target: T3, P2X purinoceptor 4; assay: Antagonist activity against recombinant rat P2X purinoceptor 4 (P2X4) at 30 uM, expressed in Xenopus oocytes; format: functional, cell-based, Oocyte
[12] = target: T5, P2X purinoceptor 3 (Homo sapiens, UniProt P56373); assay: Antagonist activity against recombinant human P2X purinoceptor 3 (P2X3 ); format: functional
T5 sequence (P56373 whole entry): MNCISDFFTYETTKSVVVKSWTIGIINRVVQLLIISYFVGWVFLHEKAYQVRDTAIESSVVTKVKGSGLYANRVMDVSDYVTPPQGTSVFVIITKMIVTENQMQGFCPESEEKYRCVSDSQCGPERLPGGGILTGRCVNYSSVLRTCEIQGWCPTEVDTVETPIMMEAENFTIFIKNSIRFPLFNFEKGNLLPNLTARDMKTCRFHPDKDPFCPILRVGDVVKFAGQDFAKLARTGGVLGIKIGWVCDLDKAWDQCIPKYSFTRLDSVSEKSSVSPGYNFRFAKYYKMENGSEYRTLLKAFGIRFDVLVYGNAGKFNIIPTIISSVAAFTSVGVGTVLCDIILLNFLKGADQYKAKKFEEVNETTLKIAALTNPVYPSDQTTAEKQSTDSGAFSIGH

[13] = target: T6, P2X purinoceptor 5 (Rattus norvegicus, UniProt P51578); assay: Antagonist activity against recombinant rat P2X purinoceptor 5 (P2X5); format: functional
T6 sequence (P51578 whole entry): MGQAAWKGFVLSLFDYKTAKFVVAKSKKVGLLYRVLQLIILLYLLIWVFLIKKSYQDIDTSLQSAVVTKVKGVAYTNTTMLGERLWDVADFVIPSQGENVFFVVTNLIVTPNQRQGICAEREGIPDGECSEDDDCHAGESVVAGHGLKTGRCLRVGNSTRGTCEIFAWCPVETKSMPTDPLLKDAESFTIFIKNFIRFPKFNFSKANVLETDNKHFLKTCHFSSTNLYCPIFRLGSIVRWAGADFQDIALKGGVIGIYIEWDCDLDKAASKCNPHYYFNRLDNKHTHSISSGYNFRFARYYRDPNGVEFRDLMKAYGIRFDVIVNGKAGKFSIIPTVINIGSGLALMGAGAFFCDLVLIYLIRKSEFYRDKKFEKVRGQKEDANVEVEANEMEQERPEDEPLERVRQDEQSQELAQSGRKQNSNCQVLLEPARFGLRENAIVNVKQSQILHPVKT

[14] = target: T7, P2X purinoceptor 2 (Rattus norvegicus, UniProt P49653); assay: Antagonist activity against recombinant rat receptor P2X purinoceptor 2 (P2X2) at 10 uM, expressed in Xenopus oocytes; format: functional, cell-based, Oocyte
T7 sequence (P49653 whole entry): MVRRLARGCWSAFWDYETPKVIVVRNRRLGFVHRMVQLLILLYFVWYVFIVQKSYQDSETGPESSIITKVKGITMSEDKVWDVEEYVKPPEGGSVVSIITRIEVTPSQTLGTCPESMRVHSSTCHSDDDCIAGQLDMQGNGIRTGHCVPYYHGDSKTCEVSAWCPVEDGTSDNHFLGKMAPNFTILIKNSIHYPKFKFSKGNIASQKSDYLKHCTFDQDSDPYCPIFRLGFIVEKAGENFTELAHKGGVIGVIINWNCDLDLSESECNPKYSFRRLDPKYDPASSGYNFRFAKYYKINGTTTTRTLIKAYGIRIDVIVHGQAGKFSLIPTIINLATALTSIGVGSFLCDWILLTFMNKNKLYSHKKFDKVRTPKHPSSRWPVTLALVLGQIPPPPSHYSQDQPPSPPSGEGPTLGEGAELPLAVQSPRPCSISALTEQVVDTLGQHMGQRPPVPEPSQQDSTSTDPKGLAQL

[15] = target: P2X purinoceptor 6 (Rattus norvegicus, UniProt P51579); assay: Antagonist activity against recombinant rat P2X purinoceptor 6 (P2X6 ); format: functional
[16] = target: T8, P2X purinoceptor 4 (Homo sapiens, UniProt Q99571); assay: Antagonist activity against recombinant human P2X purinoceptor 4 (P2X4); format: functional
T8 sequence (Q99571 whole entry): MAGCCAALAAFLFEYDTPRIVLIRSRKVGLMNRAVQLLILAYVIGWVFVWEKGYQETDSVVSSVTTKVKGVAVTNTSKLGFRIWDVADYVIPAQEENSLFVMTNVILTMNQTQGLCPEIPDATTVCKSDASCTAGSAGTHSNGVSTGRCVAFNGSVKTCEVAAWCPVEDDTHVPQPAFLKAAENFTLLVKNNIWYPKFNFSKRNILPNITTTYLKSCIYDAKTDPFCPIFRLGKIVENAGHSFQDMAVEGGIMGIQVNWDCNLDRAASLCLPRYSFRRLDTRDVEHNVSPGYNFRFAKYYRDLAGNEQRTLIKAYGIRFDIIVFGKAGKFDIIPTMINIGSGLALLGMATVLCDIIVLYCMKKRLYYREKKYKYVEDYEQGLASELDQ

P2Y purinoceptor 1 (Meleagris gallopavo, UniProt P49652), sequence (P49652 whole entry): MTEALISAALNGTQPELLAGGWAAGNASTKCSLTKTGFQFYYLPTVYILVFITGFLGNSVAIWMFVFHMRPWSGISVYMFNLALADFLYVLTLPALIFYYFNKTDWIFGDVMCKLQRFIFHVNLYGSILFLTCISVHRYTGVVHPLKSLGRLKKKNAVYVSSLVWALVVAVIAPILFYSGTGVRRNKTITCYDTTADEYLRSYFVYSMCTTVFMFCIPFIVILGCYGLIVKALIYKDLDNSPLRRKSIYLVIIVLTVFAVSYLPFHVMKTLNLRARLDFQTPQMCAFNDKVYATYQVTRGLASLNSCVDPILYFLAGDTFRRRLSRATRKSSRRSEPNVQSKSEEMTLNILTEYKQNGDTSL
P2Y purinoceptor 2, sequence (P41231 whole entry): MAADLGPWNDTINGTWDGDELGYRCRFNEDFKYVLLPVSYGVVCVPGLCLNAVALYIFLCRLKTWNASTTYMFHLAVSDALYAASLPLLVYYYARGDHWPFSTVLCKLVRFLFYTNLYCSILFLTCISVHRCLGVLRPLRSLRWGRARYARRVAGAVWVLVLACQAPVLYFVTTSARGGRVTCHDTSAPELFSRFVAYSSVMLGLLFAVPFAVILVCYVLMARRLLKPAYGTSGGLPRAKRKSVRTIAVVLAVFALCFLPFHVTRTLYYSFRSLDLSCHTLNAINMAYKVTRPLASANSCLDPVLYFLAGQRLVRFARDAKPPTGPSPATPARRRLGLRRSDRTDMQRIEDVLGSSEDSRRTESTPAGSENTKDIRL
P2Y purinoceptor 12, sequence (Q9EPX4 whole entry): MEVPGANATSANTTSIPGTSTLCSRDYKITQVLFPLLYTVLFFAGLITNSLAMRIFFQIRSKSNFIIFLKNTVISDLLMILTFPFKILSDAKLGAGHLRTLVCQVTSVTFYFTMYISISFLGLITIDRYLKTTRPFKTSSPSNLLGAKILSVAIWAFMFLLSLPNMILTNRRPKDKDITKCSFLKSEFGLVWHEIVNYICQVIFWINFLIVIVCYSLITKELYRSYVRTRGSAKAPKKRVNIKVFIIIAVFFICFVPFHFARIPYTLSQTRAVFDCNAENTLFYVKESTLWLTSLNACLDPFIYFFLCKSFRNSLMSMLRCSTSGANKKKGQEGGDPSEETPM
P2X purinoceptor 6, sequence (P51579 whole entry): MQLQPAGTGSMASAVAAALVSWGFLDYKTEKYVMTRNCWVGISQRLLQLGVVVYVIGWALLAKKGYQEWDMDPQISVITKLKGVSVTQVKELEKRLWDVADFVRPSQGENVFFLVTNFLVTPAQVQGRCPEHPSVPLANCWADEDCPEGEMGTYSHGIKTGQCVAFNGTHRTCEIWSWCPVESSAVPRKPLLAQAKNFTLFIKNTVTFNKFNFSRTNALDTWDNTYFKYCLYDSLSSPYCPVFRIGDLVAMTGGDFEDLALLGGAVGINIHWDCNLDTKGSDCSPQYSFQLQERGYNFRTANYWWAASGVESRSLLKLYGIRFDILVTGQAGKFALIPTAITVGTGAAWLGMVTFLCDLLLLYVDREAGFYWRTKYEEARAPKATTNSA
P2Y purinoceptor 6, sequence (Q15077 whole entry): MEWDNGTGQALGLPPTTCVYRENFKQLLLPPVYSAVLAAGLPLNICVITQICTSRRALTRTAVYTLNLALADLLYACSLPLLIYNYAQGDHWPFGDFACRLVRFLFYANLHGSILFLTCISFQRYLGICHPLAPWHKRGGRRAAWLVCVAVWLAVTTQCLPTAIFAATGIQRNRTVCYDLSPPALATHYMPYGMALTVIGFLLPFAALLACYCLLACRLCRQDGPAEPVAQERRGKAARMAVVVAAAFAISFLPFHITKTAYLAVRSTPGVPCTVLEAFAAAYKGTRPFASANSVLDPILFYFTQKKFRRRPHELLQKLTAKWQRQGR
P2Y purinoceptor 1 (Homo sapiens, UniProt P47900), sequence (P47900 whole entry): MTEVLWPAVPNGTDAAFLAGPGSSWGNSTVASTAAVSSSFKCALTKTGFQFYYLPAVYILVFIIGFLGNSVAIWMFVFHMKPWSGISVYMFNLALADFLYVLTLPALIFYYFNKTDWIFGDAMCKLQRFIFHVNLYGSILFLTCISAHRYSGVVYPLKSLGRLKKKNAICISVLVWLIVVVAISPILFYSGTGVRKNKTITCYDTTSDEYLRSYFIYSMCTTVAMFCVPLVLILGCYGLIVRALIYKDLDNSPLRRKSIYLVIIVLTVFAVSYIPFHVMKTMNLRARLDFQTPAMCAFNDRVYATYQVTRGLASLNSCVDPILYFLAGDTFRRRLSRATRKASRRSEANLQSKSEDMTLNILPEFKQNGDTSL

Nc1ncnc2c1ncn2[C@@H]1O[C@H](COP(=O)(O)OP(=O)(O)CP(=O)(O)O)[C@@H](O)[C@H]1O [PHOSPHOMETHYLPHOSPHONIC ACID ADENYLATE ESTER]
EC50 [1]: > 100000 nM
EC50 [2]: > 100000 nM
EC50 [3]: 2000 nM

Nc1ncnc2c1ncn2[C@H]1C[C@H](O)[C@@H](COP(=O)(O)OP(=O)(O)OP(=O)(O)O)O1
EC50 [4]: 9000 nM

CCCCCCSc1nc(N)c2ncn([C@@H]3O[C@H](COP(=O)(O)O)[C@@H](O)[C@H]3O)c2n1
EC50 [1]: 4.8 nM
EC50 [5]: 20000 nM
EC50 [6]: 840 nM

CSc1nc(N)c2ncn([C@@H]3O[C@H](COP(=O)(O)OP(=O)(O)O)[C@@H](O)[C@H]3O)c2n1
EC50 [7]: > 100000 nM

O=c1ccn([C@@H]2O[C@H](COP(=O)(O)OP(=O)(O)O)[C@@H](O)[C@H]2O)c(=O)[nH]1 [URIDINE_DIPHOSPHATE]
EC50 [8]: > 100000 nM
EC50 [9]: 300 nM
EC50 [7]: > 100000 nM

Cc1nc(/N=N/c2cc(S(=O)(=O)O)c3cc([N+](=O)[O-])cc(S(=O)(=O)O)c3c2)c(COP(=O)(O)O)c(C=O)c1O
EC50 [10]: 14 nM

Nc1ncnc2c1ncn2[C@@H]1O[C@H](CO[P@](=O)(O)O[P@](=O)(O)O[P@@](=O)(O)S)[C@@H](O)[C@H]1O
EC50 [11]: 2300 nM
EC50 [12]: 690 nM
EC50 [1]: 1300 nM
EC50 [7]: 1720 nM
EC50 [13]: 600 nM
EC50 [4]: 3000 nM
EC50 [14]: 1500 nM
EC50 [15]: 1300 nM
EC50 [2]: 1300 nM
EC50 [3]: 2300 nM

CSc1nc(N)c2ncn([C@@H]3O[C@H](COP(=O)(O)OP(=O)(O)OP(=O)(O)O)[C@@H](O)[C@H]3O)c2n1
EC50 [11]: 7400 nM
EC50 [12]: 350 nM
EC50 [16]: 1000 nM
EC50 [9]: 100000 nM
EC50 [13]: 1000 nM
EC50 [4]: 50000 nM
EC50 [14]: 1500 nM
EC50 [15]: 600 nM
EC50 [2]: 1.1 nM
EC50 [3]: 54 nM
